One data set has as its system SF-295. The data set can be described thus: tumor cell-growth inhibition assay, SF-295 cells. Format: cell-based. Particulars: Homo sapiens; cell line SF-295. The protocol: (§1) In order to find out whether the new derivatives retain their potency, the cytotoxicity of the CPT-, TMZ- and bosutinib-ketone analogues was evaluated in comparison to that of the parent drugs.

Data set [1] has as its system U-87 human primary glioblastoma cell. Put plainly: tumor cell-growth inhibition assay, U-87 cells. It counts as cell-based. The note with it: U-87 MG. How it is done:
as §1
To determine the usefulness of the drug analogues produced harboring a ketone for controlled release and bioconjugation. CPT-ketone 2a was selected for further evaluation. As presented in Scheme 1, a ketone functional group can be masked either through an acid-labile hydrazone linkage or with a photo-labile ketal protecting group. CPT-ketone 2a was masked with a photo-labile protecting group (Gravel et al., 1983; Klan et al., 2013) to produce ketal derivative 6 (FIG. 5). This derivative can be considered as prodrug form of CPT-ketone 2a. […] The cytotoxicity of prodrug 6 was then evaluated in a standard cell-growth inhibition assay before and after irradiation with UV light (FIG. 5B). […] In this example, the prodrug was activated with UV light; however, there are analogues protecting groups that can be removed through a visible or near infrared light (Lu et al., 2003).

Data set [2] in a line: release of CPT-ketone 2a from prodrug 6 with and without UV irradiation. It counts as physicochemical.
The test system of the next data set is U-251. The data set can be described thus: tumor cell-growth inhibition assay, U-251 cells. It counts as cell-based. Particulars: Homo sapiens; cell line U-251. The protocol:
as §1

In the next data set the test system is HiFR KB cells. The data set can be described thus: proliferation (MTT) assay on KB HiFR cells. It counts as cell-based. Particulars: human. How it is done: Proliferation Assay KB HiFR were seeded in 96 well/plates, 2×10^3 cell/100 μL in folate depleted RPMI+10% FBS. After 24 h incubation at 37° C., 5% CO2, 100 μL of serial dilutions (200-0.00002 μM CPT equivalent concentrations) of CPT and CPT-derivatives were added to the wells (final concentration 100-0.00001 μM). In the short exposure (pulse and chase) experiment the treatments were removed after 10 min incubation at 37° C., 5% CO2, the cells were washed once with PBS and incubated with fresh folate depleted RPMI+10% FBS for 72 h. In the long exposure experiment, the cells were incubated for 72 h with the treatment. After 72 h incubation, 30 μL of […] of MTT (3-(4,5-dimethylthiazol-2-yl)-2,5-diphenyltetrazolium bromide) in PBS were added to each well, and incubated for 5 h. After incubation the medium was removed and the cells lysed in 200 μL DMSO and kept under gentle stirring protected from light for 20 min. Absorbance was measured at 560 nm and survival plotted as percentage of untreated control.

The next data set has as its system tumorous cell-lines. Put plainly: tumor cell-growth inhibition assays of ketone derivatives vs native drugs, several tumorous cell-lines. Format: cell-based. Particulars: repeated with several tumorous cell-lines. How it is done:
as §1
The assays were repeated with several tumorous cell-lines and the obtained results were similar (FIGS. 3-4).

As usually defined, the IC50 is the concentration at which inhibition is half-maximal.

The compound `COc1cc(Nc2c(C#N)c(C(F)(F)CCCC(C)=O)nc3cc(OCCCN4CCN(C)CC4)c(OC)cc23)c(Cl)cc1Cl` [Bosutinib-ketone] came in with a half-inhibitory concentration (IC50) with SF-295 of 17000 nM.
In the case of `CCC1(O)C(=O)OCc2c1cc1n(c2=O)Cc2c-1nc1ccccc1c2C(F)(F)CCCC1(C)OCC(c2cc(OC)c(OC)cc2[N+](=O)[O-])O1` (stereo not shown) [Compound 6], the IC50 is 10 nM in data set [1] (light or radiation study, prodrug after irradiation with UV light) and 350 nM in data set [1] (light or radiation study, prodrug before irradiation with UV light). Moreover, the entries for the “release of CPT-ketone 2a” value in data set [2] (irradiation with UV light over 2 hours under physiological conditions) and in data set [2] (without irradiation) were “resulted in release of CPT-ketone 2a” and “No release was observed”, respectively.
For `CC[C@@]1(O)C(=O)OCc2c1cc1n(c2=O)Cc2cc3ccccc3nc2-1` [CPT, camptothecin, reference compound], in data set [1] (cell line U-87), the IC50 stood at 7 nM.
`COc1cc(Nc2c(C#N)cnc3cc(OCCCN4CCN(C)CC4)c(OC)cc23)c(Cl)cc1Cl` [Bosutinib, bosutinib, reference compound] displayed an IC50 with SF-295 of 17000 nM.
Take `Cn1nnc2c(C(N)=O)ncn2c1=O` [TMZ, temozolomide, reference compound]: the IC50 in the data set with U-251 came out at 36000 nM.
Turning to `CCC1(O)C(=O)OCc2c1cc1n(c2=O)Cc2c-1nc1ccccc1c2C(F)(F)CCCC(C)=O` (stereo not shown) [CPT-ketone], the IC50 in data set [1] (cell line U-87) is 10 nM; in data set [1] (light or radiation study, comparator in prodrug 6 irradiation experiment), 5 nM. In addition, the “IC50 comparison, cytotoxicity on HiFR KB cells” value in the data set on HiFR KB cells is recorded as “relatively similar IC50 values”.
For `CC(=O)CCCC(F)(F)c1nc2nc(N)nc(N)c2nc1CN(C)c1ccc(C(=O)NC(CCC(=O)O)C(=O)O)cc1` (stereo not shown) [MTX-ketone], in the data set with tumorous cell-lines, the “cytotoxicity of ketone analogue compared with native drug” value is “completely lost its cytotoxicity”.
`CC(=O)CCCC(F)(F)c1nc(C(N)=O)c2nnn(C)c(=O)n12` [TMZ-ketone] gave an IC50 with U-251 of 35000 nM.

The values are drawn from patent US10420845B2, “Taggable heteroaromatic drugs and conjugates thereof” (Ramot at Tel-Aviv University Ltd., priority 2015, dated 2019).
